{"source": "paper PMC4621012", "about": "(Molecules, 2014)", "target": "GRK5 (Bos taurus, UniProt P43249)", "sequence (P43249 whole entry)": "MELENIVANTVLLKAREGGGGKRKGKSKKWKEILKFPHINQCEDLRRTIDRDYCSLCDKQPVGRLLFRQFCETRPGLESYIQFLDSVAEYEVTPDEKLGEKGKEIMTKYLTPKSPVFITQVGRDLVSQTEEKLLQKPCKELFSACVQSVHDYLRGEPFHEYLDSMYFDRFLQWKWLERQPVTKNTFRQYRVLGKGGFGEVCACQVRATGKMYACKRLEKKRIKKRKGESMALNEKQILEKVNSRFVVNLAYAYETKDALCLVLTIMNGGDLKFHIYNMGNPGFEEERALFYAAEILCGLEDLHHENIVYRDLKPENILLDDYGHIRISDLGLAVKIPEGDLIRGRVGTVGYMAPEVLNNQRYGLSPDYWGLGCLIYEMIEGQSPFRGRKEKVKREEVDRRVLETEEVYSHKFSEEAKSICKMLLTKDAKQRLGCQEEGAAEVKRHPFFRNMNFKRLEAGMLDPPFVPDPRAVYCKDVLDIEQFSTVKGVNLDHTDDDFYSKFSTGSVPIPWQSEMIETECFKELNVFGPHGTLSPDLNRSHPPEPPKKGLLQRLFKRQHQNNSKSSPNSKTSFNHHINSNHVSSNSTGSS", "test": "DSF (ThermoFluor, ANS) melting point shift, dose response, reconfirmed by replating; no Kd", "assay_type": "binding"}
{"smiles": "CN[C@@H]1C[C@H]2O[C@@](C)([C@@H]1OC)n1c3ccccc3c3c4c(c5c6ccccc6n2c5c31)C(=O)NC4", "note": "[staurosporine]", "values": [{"measurement": "DSF (ThermoFluor, ANS) melting point shift, dose response, reconfirmed by replat", "value": "Staurosporine, which served effectively as a positive control, was not analyzed further."}]}
